The values below come from PMC10839966, “Identification and evaluation of small-molecule inhibitors against the dNTPase SAMHD1 via a comprehensive screening funnel” (iScience, 2024).

“Also recorded” adds a separate entry of the source. Like-named read-outs stand apart in the source and are kept apart here.

For experiment [1], the target named is T1, recombinant SAMHD1 (Homo sapiens, UniProt Q9Y3Z3).
T1 construct: His-tag (N); made in house; host or cells: E. coli BL21 (DE3)
In words: Kinetic study, enzyme-coupled MG assay with matrix of inhibitors and dGTP. It counts as biochemical. Conditions: inhibitor 0.03-20 μM added before dGTP 6.25-200 μM.
Method: The reactions are performed on 384-well plates with a final volume of 20 μl and DMSO level controlled at 1%, where all reagents are dispensed using a D300e Digital Dispenser (Tecan). […] Following 20 min incubation at RT, the reaction was then quenched by EDTA, Subsequently, the malachite green reagent was added at 10 μl/well, and upon incubation at RT for 20 min, [MUT] was read in a Hidex Sense microplate reader. Standard curves of inorganic sodium phosphate were constructed to determine amount of phosphate released, and subsequently used to determine reaction kinetics (GraphPad Prism).

The target in experiment [2] is T1, recombinant SAMHD1. The experiment can be described thus: Differential scanning fluorometry (DSF). It counts as binding. Conditions: for Effect on SAMHD1 thermal stability / Tm1: absence of nucleotides, up to 200 μM (0.2–[…]); for Effect on GTP-induced SAMHD1 dimerization (Tm1 transition): order-of-addition, 0.1 mM TH6342, 0.5 mM TH7127 pre-incubated before low GTP, TH7126 before or after GTP. On the technique in general: In DSF a fluorescence change marks the thermal transition of the protein.
Method: The assay mixture was then subject to a 20-85/90°C temperature gradient for 20 min, with the fluorescence intensities (RFU) measured every second using a LightCycler 480 Instrument II (Roche Life Science). […] Melting temperatures (Tm) were identified by the minima of the negative first derivative (-dRFU/dT) of fluorescence intensity (LightCycler 480 Software).

Experiment [3] concerns the target T1, recombinant SAMHD1. The experiment can be described thus: B4NPP direct SAMHD1 enzymatic assay. The experiment is classed as biochemical. As to conditions: for Inhibition of SAMHD1 activity against B4NPP (in words): 2 mM B4NPP.
The target in experiment [4] is T1, recombinant SAMHD1. The experiment can be described thus: Enzyme-coupled malachite green assay, SAMHD1 in vitro activity (dGTP, ara-CTP, Cl-F-ara-ATP substrates). The experiment is classed as biochemical.
Experiment [5] relates to recombinant MTH1, dCTPase, dUTPase, ITPase, NUDT5, NUDT12, NUDT15 and NUDT22. The experiment can be described thus: Compound selectivity, enzyme-coupled MG assays against panel of nucleoside pyro-/tri-phosphatases. It counts as biochemical, human. As to conditions: assayed up to 100 μM.
Experiment [6] concerns the target T1, recombinant SAMHD1. The experiment can be described thus: Dynamic light scattering (DLS), SAMHD1 particle size. As to conditions: 1 mM compound, 1 mM GTP.
Method: SAMHD1 particle size distribution was determined using a Malvern ZETASIZER (Ultra) (Malvern Instruments). […] Raw intensity-weighted data were converted to volume distribution by built-in algorithms to mitigate the impact of aggregated protein species.
Experiment [7] concerns the target T1, recombinant SAMHD1. In words: In vitro chemical crosslinking (glutaraldehyde), SAMHD1 multimers. Conditions: 1.875 mM glutaraldehyde, GTP 0-5 mM.
Experiment [8] has as its system T2, SAMHD1^Y146S/Y154S.
T2 construct: expressed in transfected cells; host or cells: SAMHD1-/- THP-1 cell clone
The experiment can be described thus: CETSA using lysates of SAMHD1−/− THP-1 cells with rescue expression of dimerization-defective variant. The experiment is classed as binding, Human. As to conditions: versus DMSO, full melt curves, 100 μM.

In experiment [9] the test system is T3, wild-type SAMHD1 in THP-1 cell lysates.
T3 construct: lysate from THP-1 cells expressing endogenous wild-type SAMHD1; endogenous in cells; host or cells: THP-1
In words: CETSA using THP-1 cell lysates, wild-type SAMHD1. It counts as binding, Human.
Method: (§1) Samples were subsequently rested at RT for 3 min, supplemented with 40 μL sample buffer (50 mM HEPES pH 7.5, 5 mM β-glycerophosphate, 0.1 mM Na3VO4, 10 mM MgCl2, 2 mM TCEP, 1X cOmplete, Mini, EDTA-free protease inhibitor cocktail), and then lysed through three freeze-thaw cycles with alternating ethanol/dry ice and 37°C water bath. Finally, lysates were clarified by centrifugation at 17,000g for 20 min and then analysed by Western blot. […] Following heating, samples were rested at RT for 3 min, clarified by centrifugation, and finally analysed by Western blot. Protein band intensities were normalised to that of the thermally stable loading control SOD-1, and were curve-fitted via a Boltzmann sigmoidal model (GraphPad Prism) to determine Tagg.

The test system of experiment [10] is T4, cellular SAMHD1 in THP-1 cell lysate.
T4 construct: lysate from THP-1 cells expressing endogenous wild-type SAMHD1; endogenous in cells; host or cells: THP-1
The experiment can be described thus: Drug affinity responsive target stability (DARTS) on THP-1 cell lysates. It counts as binding, Human. Conditions: 100 μM compound or 5 mM dGTP.
Method: Lysates were then clarified by centrifugation at 16000 x g for 10 min at 4°C. Protein concentrations of the clarified lysates were subsequently determined by Pierce™ Coomassie plus (Bradford) assay reagent (Thermo Scientific), and samples were diluted in 1x TN buffer (50 mM Tris-HCl pH 8.0, 50 mM NaCl) to a total protein concentration of 1 mg/mL. […] Digestion was stopped by the addition of 4x Laemmli sample buffer (Bio-Rad) supplemented with 100 mM DTT and heating at 95°C for 5 min.

For experiment [11], the system named is T5, cellular SAMHD1 in intact THP-1 cells.
T5 construct: lysate from THP-1 cells expressing endogenous wild-type SAMHD1; endogenous in cells; host or cells: THP-1
In words: CETSA using intact THP-1 cells. Conditions: 100 μM inhibitors or 10 mM thymidine, 2 h; isothermal at 53°C for inhibitors. The experiment is classed as cell-based, Human.
Method: as §1

Where [12] appears, read: substrate Cl-F-ara-ATP 50 μM with GTP 12.5 μM as activator, read-out: IC50 (μM) Cl-F-ara-ATP.
Setting [13] is: substrate ara-CTP 200 μM with dGTPαS 3.125 μM as activator, read-out: IC50 (μM) araCTP.
Setting [14] is: substrate dGTP 25 μM, read-out: IC50 (μM) dGTP.

T1 sequence (Q9Y3Z3 whole entry): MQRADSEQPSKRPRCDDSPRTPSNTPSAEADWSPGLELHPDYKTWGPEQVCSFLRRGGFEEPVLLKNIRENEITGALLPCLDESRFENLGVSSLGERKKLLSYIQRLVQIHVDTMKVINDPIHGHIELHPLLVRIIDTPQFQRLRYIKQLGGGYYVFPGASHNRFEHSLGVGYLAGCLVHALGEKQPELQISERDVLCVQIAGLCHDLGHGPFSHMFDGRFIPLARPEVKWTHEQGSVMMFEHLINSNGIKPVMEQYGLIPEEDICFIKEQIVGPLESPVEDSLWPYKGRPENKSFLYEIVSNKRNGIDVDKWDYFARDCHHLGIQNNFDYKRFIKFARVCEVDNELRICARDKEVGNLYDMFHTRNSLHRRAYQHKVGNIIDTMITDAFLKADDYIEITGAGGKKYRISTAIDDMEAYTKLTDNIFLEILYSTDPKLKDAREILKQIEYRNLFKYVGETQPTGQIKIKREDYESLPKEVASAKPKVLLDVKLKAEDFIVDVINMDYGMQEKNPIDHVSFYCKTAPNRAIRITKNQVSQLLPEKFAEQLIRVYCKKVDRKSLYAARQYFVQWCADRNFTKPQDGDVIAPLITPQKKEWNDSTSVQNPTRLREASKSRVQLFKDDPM

Consider `c1ccc(CCNc2nc(-c3cccs3)cn3ccnc23)nc1` [TH7528, N-(2-(pyridin-2-yl)ethyl)-6-(thiophen-2-yl)imidazo[1,2-a]pyrazin-8-amine], for which the “Effect on reaction kinetics / Hill coefficient (Hn)” value in experiment [1] is given as “significantly increased hill coefficients”. In experiment [2], the “Effect on SAMHD1 thermal stability / Tm1” value is given as “small concentration-dependent reduction in Tm1”. Also, the “Inhibition of SAMHD1 activity against B4NPP (in words)” value (“Inhibition of SAMHD1 activity” below) in experiment [3] (Mn2+) was “retained their inhibitory activities”. Also, the IC50 (commonly the point on the concentration scale where inhibition reaches its midpoint) in experiment [4] (setting [12]) was 2.6 µM; in [4] (setting [13]), 2.8 µM; in experiment [4] (setting [14]), 4.5 µM. The “Selectivity for SAMHD1 versus panel of nucleotide phosphatases” value (“Selectivity for SAMHD1 versus panel” for short) in [5] is recorded as “selectively inhibited SAMHD1”.
As to `Clc1ccccc1-c1cn2ccnc2c(NCCc2ccccn2)n1` [TH6342, 6-(2-chlorophenyl)-N-(2-(pyridin-2-yl)ethyl)imidazo[1,2-a]pyrazin-8-amine], the “Effect on reaction kinetics / Hill coefficient (Hn)” value in [1] is “significantly increased hill coefficients”. Also, the “Effect on GTP-induced SAMHD1 dimerization (DLS)” value in [6] was “deterred GTP (1 mM)-induced SAMHD1 dimerization”. Moreover, the “Effect on thermal stability of nucleotide-bound SAMHD1” value in [2] (0.5 mM compound added after GTP at 5 mM or dGTPαS at 1 mM) is “mildly destabilized GTP-bound, but not dGTPαS-bound, SAMHD1 species”. The “Effect on SAMHD1 thermal stability / Tm1” value in [2] is “small concentration-dependent reduction in Tm1”. Moreover, the “Effect on GTP-induced SAMHD1 dimerization (Tm1 transition)” value (from here on “Effect … (Tm1 transition)”) in experiment [2] was “the allosteric activator was not able to fully remove the Tm1 transition”. For the same compound, in [7], the “Effect on GTP-induced SAMHD1 multimerization (crosslinking)” value was “deterred GTP-induced SAMHD1 multimerization”. Further, the “Increase of aggregation temperature (Tagg)” value in [8] was ~1 °C. The “Aggregation temperature (Tagg) ± SE (°C)” value in [9] (Figure 7F, SAMHD1 Tagg summary, wild-type SAMHD1 lysate, 100 μM compound, DMSO 44.8 ± 0.6) stood at 46.1 ± 0.4 °C. Further, in [3] (Mn2+), the “Inhibition of SAMHD1 activity” value was “retained their inhibitory activities”. The “SAMHD1 stability to pronase treatment” value in [10] is recorded as “Neither TH6342 nor TH7127 in cell lysates altered SAMHD1 stability to pronase treatment”. The IC50 in experiment [4] (setting [12]) came out at 5.8 µM; in experiment [4] (setting [13]) it was 11 µM; in [4] (setting [14]), 9.1 µM. For the same compound, the “Selectivity for SAMHD1 versus panel” value in [5] was “selectively inhibited SAMHD1”.
Consider `Nc1nc2c(ncn2[C@H]2C[C@H](O)[C@@H](COP(=O)(O)OP(=O)(O)OP(=O)(O)O)O2)c(=O)[nH]1` [dGTP, reference compound], for which the “SAMHD1 stabilization against heat, cell lysate” value in experiment [9] (100 μM inhibitors or 5 mM dGTP, isothermal at 45°C for inhibitors) was “substantially stabilized SAMHD1”. The “SAMHD1 stability to pronase treatment” value in experiment [10] was “substantially stabilized SAMHD1”.
With `Cc1cn([C@H]2C[C@H](O)[C@@H](CO)O2)c(=O)[nH]c1=O` [thymidine, Thymidine], the “SAMHD1 stabilization against heat, intact cells” value in experiment [11] is given as “substantially stabilized SAMHD1”.
Turning to `Nc1ccccc1-c1cn2ccnc2c(NCCc2ccccn2)n1` [TH7126, 6-(2-aminophenyl)-N-(2-(pyridin-2-yl)ethyl)imidazo[1,2-a]pyrazin-8-amine], the “Effect on reaction kinetics / Hill coefficient (Hn)” value in experiment [1] is given as “did not alter the reaction kinetics”. In [2], the “Effect on SAMHD1 thermal stability / Tm1” value is “did not alter SAMHD1 thermal stability”. For the same compound, the “Effect … (Tm1 transition)” value in experiment [2] was “did not disrupt SAMHD1 dimerization”. In addition, the “Inhibition of SAMHD1 activity” value in experiment [3] (Mn2+) is reported as “minimal inhibition”. The “Inhibition of SAMHD1 (in words)” value in experiment [4] (dGTP, ara-CTP and Cl-F-ara-ATP substrates) is recorded as “Neg. control; also recorded: minimal inhibition”. In addition, the IC50 in experiment [4] (setting [12]), in [4] (setting [13]) and in [4] (setting [14]) was > 100 µM in each case.
As to `COc1ccccc1-c1cn2ccnc2c(NCCc2ccccn2)n1` [TH7127, 6-(2-methoxyphenyl)-N-(2-(pyridin-2-yl)ethyl)imidazo[1,2-a]pyrazin-8-amine], in experiment [1], the “Effect on reaction kinetics / Hill coefficient (Hn)” value is “significantly increased hill coefficients”. In addition, in [2], the “Effect on SAMHD1 thermal stability / Tm1” value is given as “small concentration-dependent reduction in Tm1”. The “Effect … (Tm1 transition)” value in experiment [2] was “the allosteric activator was not able to fully remove the Tm1 transition”. Further, the “Inhibition of SAMHD1 activity” value in experiment [3] (Mn2+) is “retained their inhibitory activities”. In [3] (B4NPP substrate, Mn2+, global fit, mixed inhibition model), the Ki (commonly the equilibrium dissociation constant of an inhibitor or competing ligand from its target) came out at 20.1 µM. Also, the Mode of inhibition result in experiment [3] (B4NPP substrate, global fitting) was “mixed mode of inhibition”. Besides, the “alpha (α)” value in experiment [3] (B4NPP substrate, global fit, mixed inhibition model) worked out at 0.36. Moreover, the “SAMHD1 stability to pronase treatment” value in experiment [10] is “Neither TH6342 nor TH7127 in cell lysates altered SAMHD1 stability to pronase treatment”. Also, the figures for the IC50 in experiment [4] (setting [12]), in experiment [4] (setting [13]) and in [4] (setting [14]) were 4 µM, 4.5 µM and 4.9 µM, respectively. Besides, the “Selectivity for SAMHD1 versus panel” value in [5] is reported as “selectively inhibited SAMHD1”.
Take `Nc1nc2c(ncn2[C@H]2C[C@H](O)[C@@H](COP(O)(=S)OP(=O)(O)OP(=O)(O)O)O2)c(=O)[nH]1` (stereo partly drawn) [dGTPαS, reference compound]: in experiment [2] (SAMHD1 melting temperature with dGTPαS up to 1 mM), the Tm3 was ~70 °C.
